Results: patent publication US9084546B2, “Co-electrodeposited hydrogel-conducting polymer electrodes for biomedical applications” (The Regents of the University of Michigan, priority 2005, dated 2015)

Columns and labels:
[1] = test system: MCC (mouse primary cortical cultures); experiment: Cytotoxicity dose-response of EDOT monomer with PSS dopant (cell viability); assay type: cell-based; conditions: MCC exposed to as much as 0.01 M EDOT, 0.02M PSS for as long as 72 h
Procedure: (§1) Materials and Methods: SH-SY5Y neuroblastoma-derived cells were maintained in Dulbecco's Modified-Eagle's Media (DMEM with glucose, with L-glutamine; Gibco/Invitrogen, Carlsbad, Calif.) supplemented with Penn-Strep mixed antibiotic solution (dilute 1:100 in cell media; Gibco/Invitrogen) and 10% fetal bovine serum (FBS; Gibco/Invitrogen). Mouse primary dissociated cortical cultures (MCC) were prepared from embryonic day 18-20 (E18-20) mice. […]
(§2) Cell Viability Assays: Cell viability was assessed using three assays; the Vybrant Live/Dead Assay (Molecular Probes), the MTT cell viability assay (Chemicon, Temecula, Calif.), and immunocytochemistry (ICC) for the apoptosis associated protease, activated caspase 3 (Cell Signaling Technologies, Beverly, Mass.). For Vybrant Live/Dead assay cell quantity, size, and type of nuclear staining intensity were assessed by fluorescence microscopy using 3 different dyes, Hoechst 33342 (labels all cell nuclei but brighter in nuclei of apoptotic cells), YoPro-3 (labels apoptotic cells) and propidium iodide (PI) (labels cells with compromised membrane; apoptotic & necrotic cells). […]

SY5Y cells = experiment: as above; assay type: cell-based; conditions: SY5Y cells exposed to as much as 0.01 M EDOT, 0.02M PSS for as long as 72 h
Procedure: as §1, §2

c1scc2c1OCCO2 [EDOT, 3,4-ethylenedioxythiophene]
cell viability [1]: at least 75%
cell viability (SY5Y cells): at least 75%
